Results taken from patent publication US7439052B2, “Method of making modified immunodeficiency virus particles” (Lipid Sciences, priority 2000, dated 2008).

Experiments:
SIVmac239 [1] = assay: Plasma viral loads in macaques chronically infected with SIVmac239; assay type: in vivo
Description: (§1) A cohort of highly viremic macaques chronically infected for over two years with SIVmac239 was used as a chronic and pathogenic model of immunodeficiency virus infection. The animals were identified as RDg-7, RJo-6, RMi-7 and RSp-6. To test the effect on these animals of administration of a delipidated immunodeficiency virus composition comprising modified, partially delipidated immunodeficiency viral particles, also referred to as therapeutic vaccine compositions or therapeutic vaccines, autologous immunodeficiency virus was delipidated and administered to the experimental animals following a 30 day antiretroviral therapy (ART) with an antiviral drug PMPA. […] The animals were then subjected to lymph node targeted immunization at monthly intervals with 1, 1 and 10 μg of autologous delipidated SIV virus composition, obtained substantially as described elsewhere herein. Four weeks after the last boost, ART was discontinued and the animals were monitored for virological and immunological parameters.
The virological and immunological parameters were determined substantially as follows. Viral loads, schematically shown in FIGS. 13-18, were analyzed by SIV enzyme immunoassay (EIA) substantially as described elsewhere herein. […] Plates were read at a 450 nm wavelength using an ELISA reader. […]

SIVmac239 [2] = assay: Absolute CD4 counts in SIV-infected macaques; assay type: in vivo; conditions: from pre-PMPA levels of <500/μl
Description: as §1

C[C@H](Cn1cnc2c(N)ncnc21)OCP(=O)(O)O [PMPA]
viral loads after 30 day antiretroviral therapy (SIVmac239 [1]; macaques chronically infected with SIVmac239): less than 80 copies/ml of viral RNA | plasma viral loads under treatment (below the limits of detection) (SIVmac239 [1]; reduced from 10^4-10^6): < 10 viral RNA copies/ml | absolute CD4 counts (SIVmac239 [2]): increases in absolute CD4 counts
